Measured values taken from patent US4994440A, “Method for the treatment of renal cell carcinoma” (priority 1989, dated 1991).

Tested on: metastatic renal cell carcinoma
Assay: Treatment of patients with metastatic renal cell carcinoma by 1 hour infusion of the liposomal composition
Format: in vivo, man
Conditions: a patient with renal cell carcinoma with multiple small pulmonary metastases
Experimental: 12 patients diagnosed as having metastatic renal cell carcinoma were given the liposomal composition in accordance with Example 2 at various dosage levels of the active ingredient by 1 hour infusion in 50 ml of isotonic saline through a safety filter twice a week for a total of 8 doses.

CCCCCCCCCCCCCCCC(=O)OCC(COP(=O)([O-])OCCNC(=O)C(C)NC(=O)CCC(NC(=O)C(C)NC(=O)C(C)OC1C(O)C(CO)OC(O)C1NC(C)=O)C(N)=O)OC(=O)CCCCCCCCCCCCCCC.[Na+] [N-acetylmuramyl-L-alanyl-D-isoglutaminyl-L-alanine-2-(1,2-dipalmitoyl-sn-glycero-3-hydroxyphosphoryloxy)ethylamide monosodium salt]
size of lesions: reduce the size of lesions
